Results as given in patent publication US20130324725A1, “AMINOPYRIMIDINES USEFUL AS KINASE INHIBITORS” (VERTEX PHARMACEUTICALS INCORPORATED, priority 2007, published 2013).
Read-outs that look alike come from different tables or passages of the source.

Tests used:
[1] = test system: Colo205 cells; test: Analysis of cell proliferation and viability; type: cell-based; conditions: Homo sapiens
Description: Compounds were screened for their ability to inhibit cell proliferation and their effects on cell viability using Colo205 cells obtained from ECACC and using the assay shown below.
Colo205 cells were seeded in 96 well plates and serially diluted compound was added to the wells in duplicate. Control groups included untreated cells, the compound diluent (0.1% DMSO alone) and culture medium without cells. The cells were then incubated for 72 or 96 hrs at 37 C in an atmosphere of 5% CO2/95% humidity.
To measure proliferation, 3 h prior to the end of the experiment 0.5 μCi of 3H thymidine was added to each well. Cells were then harvested and the incorporated radioactivity counted on a Wallac microplate beta-counter. Cell viability was assessed using Promega CellTiter 96AQ to measure MTS conversion. Dose response curves were calculated using either Prism 3.0 (GraphPad) or SoftMax Pro 4.3.1 LS (Molecular Devices) software.

[2] = biological target: T1, Aurora-2 (Aurora A) (Homo sapiens, UniProt O14965); test: Aurora-2 (Aurora A) inhibition assay, coupled enzyme; type: biochemical; conditions: 400 μM ATP, 30° C.
T1 sequence (O14965 1-403): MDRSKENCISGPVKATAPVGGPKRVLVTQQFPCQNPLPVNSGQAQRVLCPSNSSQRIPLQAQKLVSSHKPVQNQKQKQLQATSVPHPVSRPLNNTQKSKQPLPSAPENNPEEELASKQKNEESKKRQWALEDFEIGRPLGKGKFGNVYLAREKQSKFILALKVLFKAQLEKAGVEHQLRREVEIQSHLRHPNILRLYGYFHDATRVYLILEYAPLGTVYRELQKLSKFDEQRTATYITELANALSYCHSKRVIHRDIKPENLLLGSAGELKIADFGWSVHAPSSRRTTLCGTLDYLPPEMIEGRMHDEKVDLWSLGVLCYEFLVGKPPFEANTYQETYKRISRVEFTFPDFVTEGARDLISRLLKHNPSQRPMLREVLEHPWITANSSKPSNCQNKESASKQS
Description: Compounds were screened for their ability to inhibit Aurora-2 using a standard coupled enzyme assay (Fox et al., Protein Sci., (1998) 7, 2249). Assays were carried out in a mixture of 100 mM Hepes (pH7.5), 10 mM MgCl2, 1 mM DTT, 25 mM NaCl, 2.5 mM phosphoenolpyruvate, 300 μM NADH, 30 μg/ml pyruvate kinase and 10 μg/ml lactate dehydrogenase. Final substrate concentrations in the assay were 400 μM ATP (Sigma Chemicals) and 570 μM peptide (Kemptide, American Peptide, Sunnyvale, Calif.). Assays were carried out at 30° C. and in the presence of 40 nM Aurora-2.
An assay stock buffer solution was prepared containing all of the reagents listed above, with the exception of Aurora-2 and the test compound of interest. 55 μl of the stock solution was placed in a 96 well plate followed by addition of 2 μl of DMSO stock containing serial dilutions of the test compound (typically starting from a final concentration of 7.5 μM). The plate was preincubated for 10 minutes at 30° C. and the reaction initiated by addition of 10 μl of Aurora-2. Initial reaction rates were determined with a Molecular Devices SpectraMax Plus plate reader over a 10 minute time course. IC50 and Ki data were calculated from non-linear regression analysis using the Prism software package (GraphPad Prism version 3.0cx for Macintosh, GraphPad Software, San Diego Calif., USA).

[3] = biological target: Aurora-1 (Aurora B) (Homo sapiens, UniProt Q96GD4); test: Aurora-1 (Aurora B) inhibition assay (radiometric); type: biochemical; conditions: 800 μM ATP, 25° C.; read-out: Ki, Aurora-1 (Aurora B) radiometric assay (sentence prints Aurora A)
Sequence of Aurora-1 (Aurora B) (Q96GD4 whole entry): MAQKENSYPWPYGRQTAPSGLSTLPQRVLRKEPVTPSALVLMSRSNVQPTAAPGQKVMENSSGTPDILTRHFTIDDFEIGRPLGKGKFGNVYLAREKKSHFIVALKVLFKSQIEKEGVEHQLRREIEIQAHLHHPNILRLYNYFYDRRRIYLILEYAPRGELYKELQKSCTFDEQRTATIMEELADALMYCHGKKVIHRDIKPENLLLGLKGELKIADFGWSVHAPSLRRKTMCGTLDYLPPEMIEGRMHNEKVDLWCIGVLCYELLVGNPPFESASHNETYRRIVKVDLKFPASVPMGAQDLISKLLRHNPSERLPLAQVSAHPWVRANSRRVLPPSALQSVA
Description: An assay buffer solution was prepared which consisted of 25 mM HEPES (pH 7.5), 10 mM MgCl2, 0.1% BSA and 10% glycerol. A 22 nM Aurora-B solution, also containing 1.7 mM DTT and 1.5 mM Kemptide (LRRASLG), was prepared in assay buffer. To 22 μL of the Aurora-B solution, in a 96-well plate, was added 2 μl of a compound stock solution in DMSO and the mixture allowed to equilibrate for 10 minutes at 25° C. The enzyme reaction was initiated by the addition of 16 μl stock [γ-^33P]-ATP solution ([…]) prepared in assay buffer, to a final assay concentration of 800 μM. The reaction was stopped after 3 hours by the addition of 16 μL 500 mM phosphoric acid and the levels of ^33P incorporation into the peptide substrate were determined by the following method.
A phosphocellulose 96-well plate (Millipore, Cat no. MAPHNOB50) was pre-treated with 100 μL of a 100 mM phosphoric acid prior to the addition of the enzyme reaction mixture (40 μL). […] Levels of non-enzyme catalyzed background radioactivity were determined by adding 16 μL of the 500 mM phosphoric acid to control wells, containing all assay components (which acts to denature the enzyme), prior to the addition of the [γ-^33P]-ATP solution. Levels of enzyme catalyzed ^33P incorporation were calculated by subtracting mean background counts from those measured at each inhibitor concentration. […]

[4] = biological target: T2, T315I mutant of human Abl (Homo sapiens, UniProt P00519, T315I); test: Mutant Abl kinase (T315I) activity inhibition assay; type: biochemical; conditions: at Upstate Cell Signaling Solutions
T2 construct: purchased Upstate Cell Signaling Solutions (Dundee, UK), assay run at the vendor
Description: Compounds were screened for their ability to inhibit the T315I mutant form of human Abl at Upstate Cell Signaling Solutions (Dundee, UK). In a final reaction volume of 25 μl, the T315I mutant of human Abl (5-10 mU) was incubated with 8 mM MOPS pH 7.0, 0.2 mM EDTA, 50 μM EAIYAAPFAKKK, 10 mM Mg Acetate, [γ-^33P-ATP](specific activity approx. 500 cpm/pmol, […] final assay concentration) and the test compound of interest at final concentrations over the range […]. The reaction was initiated by the addition of the MgATP mix. After incubation for 40 minutes at room temperature, the reaction was stopped by the addition of 5 μl of a 3% phosphoric acid solution. 10 μl of the reaction was then spotted onto a P30 filtermat and washed three times for 5 minutes in 75 mM phosphoric acid and once in methanol prior to drying and scintillation counting. […]

[5] = COLO 205, 72 hours, read-out: IC50 values after 72 hours
[6] = COLO 205, 96 hours, read-out: IC50 values after 96 hours

Row | IC50 [1, 5] [nM] | SMILES | further results
1 | 50 to 100 | Cc1cc(Nc2cc(N3CCN(C(C)(C)CF)CC3)nc(Sc3ccc4c(c3)CN(CC(F)(F)F)C4=O)n2)[nH]n1 [Compound I-2] | –
2 | < 50 | Cc1cc(Nc2cc(N3CCN(C(C)(C)CF)CC3)nc(Sc3ccc4nc(CC(F)(F)F)n(C)c4c3)n2)[nH]n1 [Compound I-7] | –
3 | < 50 | Cc1cc(Nc2cc(N3CCN(C4CCCCC4)CC3)nc(Sc3ccc4nc(C(F)(F)F)[nH]c4c3)n2)[nH]n1 [Compound I-8] | –
4 | 50 to 100 | Cc1cc(Nc2cc(N3CCN(C4CCN(C)CC4)CC3)nc(Sc3ccc4nc(C(F)(F)F)ccc4c3)n2)[nH]n1 [Compound I-17] | Ki [4]: < 25 nM
5 | < 50 | Cc1cc(Nc2cc(N3CCN(C4CCCCC4)CC3)nc(Sc3ccc4nc(CC(F)(F)F)n(C)c4c3)n2)[nH]n1 [Compound I-19] | –
6 | < 50 | Cc1cc(Nc2cc(N3CCN(C4CC4)CC3)nc(Sc3ccc4c(c3)CN(CC(F)(F)F)C4=O)n2)[nH]n1 [Compound I-20] | –
7 | 50 to 100 | Cc1cc(Nc2cc(N3CCN(CC(F)(F)F)CC3)nc(Sc3ccc4c(c3)CN(CC(F)(F)F)C4=O)n2)[nH]n1 [Compound I-24] | –

Continued, compound first:

Row | SMILES | IC50 [1, 5] [nM] | further results
8 | Cc1cc(Nc2cc(N3CCN(C4CCCCC4)CC3)nc(Sc3cc(F)c4nc(C)ccc4c3)n2)[nH]n1 [Compound I-1] | 50 to 100 | –
9 | Cc1cc(Nc2cc(N3CCN(C4CCCCC4)CC3)nc(Sc3ccc4nc(C(F)(F)F)n(C)c4c3)n2)[nH]n1 [Compound I-3] | < 50 | IC50 [1, 6]: < 50 nM
10 | Cc1cc(Nc2cc(N3CCN(C4CC4)CC3)nc(Sc3ccc4nc(C(F)(F)F)[nH]c4c3)n2)[nH]n1 [Compound I-4] | 50 to 100 | –
11 | Cc1cc(Nc2cc(N3CCN(C4CC4)CC3)nc(Sc3ccc4nc(CC(F)(F)F)n(C)c4c3)n2)[nH]n1 [Compound I-5] | < 50 | –
12 | Cc1cc(Nc2cc(N3CCN(CC(F)(F)F)CC3)nc(Sc3ccc4nc(C(F)(F)F)[nH]c4c3)n2)[nH]n1 [Compound I-9] | – | Ki [2]: ≤ 1 nM; Ki [3]: 20 to 50 nM
13 | Cc1cc(Nc2cc(N3CCN(C4CC4)CC3)nc(Sc3ccc4nc(C(F)(F)F)n(C)c4c3)n2)[nH]n1 [Compound I-10] | 50 to 100 | IC50 [1, 6]: < 50 nM
14 | Cc1cc(Nc2cc(N3CCN(C4CCN(C)CC4)CC3)nc(Sc3ccc4nc(C(F)(F)F)n(C)c4c3)n2)[nH]n1 [Compound I-12] | < 50 | –
15 | Cc1cc(Nc2cc(N3CCN(C4CCN(C)CC4)CC3)nc(Sc3cc(F)c4nc(C)ccc4c3)n2)[nH]n1 [Compound I-13, 2-(8-fluoro-2-methylquinolin-6-ylthio)-N-(3-methyl-1H-pyrazol-5-yl)-6-(4-(1-methylpiperidin-4-yl)piperazin-1-yl)pyrimidin-4-amine] | < 50 | –
16 | Cc1cc(Nc2cc(N3CCN(C(C)(C)C)CC3)nc(Sc3ccc4c(cnn4C)c3)n2)[nH]n1 [Compound I-16] | – | IC50 [1, 6]: < 50 nM
17 | Cc1cc(Nc2cc(N3CCN(C(C)(C)C)CC3)nc(Sc3ccc4ncn(C)c4c3)n2)[nH]n1 [Compound I-18] | – | IC50 [1, 6]: < 50 nM
18 | Cc1cc(Nc2cc(N3CCN(C4CCCCC4)CC3)nc(Sc3ccc4c(c3)CN(CC(F)(F)F)C4=O)n2)[nH]n1 [Compound I-25] | < 50 | –
